Test results from patent US4570006A, “Amidine compound, process for producing same and anti-complement agent comprising same” (Torii & Co. Ltd., priority 1981, dated 1986).

What was measured:
[1] = molecular target: T1, Clr (Homo sapiens, UniProt P00736); assay: Anti-Cl esterase activity, Clr (AAME hydrolysis); assay type: biochemical; details: hydrolysis of AAME; read-out: Anti-Cl activity, Clr (ID50)
T1 sequence (P00736 464-705 limits assumed): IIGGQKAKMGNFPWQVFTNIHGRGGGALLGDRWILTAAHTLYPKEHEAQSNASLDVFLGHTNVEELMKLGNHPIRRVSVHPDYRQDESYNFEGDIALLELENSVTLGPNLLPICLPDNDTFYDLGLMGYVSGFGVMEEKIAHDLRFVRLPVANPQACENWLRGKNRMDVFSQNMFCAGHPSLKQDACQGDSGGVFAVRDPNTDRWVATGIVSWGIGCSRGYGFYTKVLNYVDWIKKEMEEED
T1 sequence (P00736 18-463 limits assumed): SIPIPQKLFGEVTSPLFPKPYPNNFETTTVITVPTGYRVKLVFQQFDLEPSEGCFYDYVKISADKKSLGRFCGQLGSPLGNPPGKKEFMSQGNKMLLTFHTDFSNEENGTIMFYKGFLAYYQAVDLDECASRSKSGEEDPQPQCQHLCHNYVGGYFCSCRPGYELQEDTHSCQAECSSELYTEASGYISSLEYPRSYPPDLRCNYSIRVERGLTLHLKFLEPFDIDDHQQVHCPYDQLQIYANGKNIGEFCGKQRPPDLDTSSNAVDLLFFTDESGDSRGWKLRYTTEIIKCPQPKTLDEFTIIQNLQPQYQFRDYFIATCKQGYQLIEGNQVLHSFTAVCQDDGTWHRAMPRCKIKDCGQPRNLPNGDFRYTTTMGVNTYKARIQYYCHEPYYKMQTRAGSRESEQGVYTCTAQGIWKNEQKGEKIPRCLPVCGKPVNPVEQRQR
Method: The anti-Cl esterase ([…]) activity was determined according to the method of Okamura et al. [K. Okamura, M. Muramatsu and B. Fujii, Biochem. Biophys.

[2] = tested on: Kallikrein; assay: Anti-kallikrein activity (inhibition of TAME hydrolysis); assay type: biochemical; details: read-out: ID50, kallikrein
Method: (§1) The anti-trypsin, anti-plasmin, anti-kallikrein and anti-thrombin activities were determined according to the method of Muramatsu et al. [M. Muramatsu, T. Onishi, S. Makino, Y. Hayashi and S. Fujii, J. of Biochem., 58, 214 (1965)]. The data summarized in Table 1 are expressed in terms of molar concentration (ID50) of the test compound which inhibits 50% of the activity of each enzyme to hydrolyze TAME (tosylarginine methyl ester). The compound No. corresponds to the compound number shown in Examples.

[3] = tested on: complement; assay: Inhibition of complement mediated hemolysis; assay type: cell-based
Method: The complement mediated hemolysis is widely used as a means to determine the titration of complement. The principle of this method is based on the fact that hemolysis if caused by the activation of complement, when the latter is added to a complex (immune complex) of erythrocytes and the antibody thereof. The degree of hemolysis varies in proportion to the amount of complement added. Therefore, when a known amount of complement admixed with a Cl esterase inhibitor is used, the hemolysis must be suppressed in proportion to the inhibitory activity.
The anti-Cl esterase (Clr, Cls) activity was determined according to the method of Okamura et al. [K. Okamura, M. Muramatsu and B. Fujii, Biochem. Biophys. […] The figures in Table 2 have the following meanings: […]

[4] = molecular target: Thrombin (Homo sapiens, UniProt P00734); assay: biochemical; details: TAME hydrolysis; read-out: ID50, thrombin
[5] = molecular target: Plasmin (Homo sapiens, UniProt P00747); assay: Anti-plasmin activity (inhibition of TAME hydrolysis); assay type: biochemical; details: read-out: ID50, plasmin
Chain of Plasmin (P00747 581-810 limits assumed, species assumed): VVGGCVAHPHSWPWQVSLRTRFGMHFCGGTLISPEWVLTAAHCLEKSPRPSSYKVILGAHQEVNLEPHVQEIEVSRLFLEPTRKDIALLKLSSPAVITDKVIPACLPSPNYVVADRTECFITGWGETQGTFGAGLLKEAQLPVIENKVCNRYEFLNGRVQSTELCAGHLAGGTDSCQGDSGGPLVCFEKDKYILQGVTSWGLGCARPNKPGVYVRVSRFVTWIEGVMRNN
Chain of Plasmin (P00747 97-580 limits assumed, species assumed): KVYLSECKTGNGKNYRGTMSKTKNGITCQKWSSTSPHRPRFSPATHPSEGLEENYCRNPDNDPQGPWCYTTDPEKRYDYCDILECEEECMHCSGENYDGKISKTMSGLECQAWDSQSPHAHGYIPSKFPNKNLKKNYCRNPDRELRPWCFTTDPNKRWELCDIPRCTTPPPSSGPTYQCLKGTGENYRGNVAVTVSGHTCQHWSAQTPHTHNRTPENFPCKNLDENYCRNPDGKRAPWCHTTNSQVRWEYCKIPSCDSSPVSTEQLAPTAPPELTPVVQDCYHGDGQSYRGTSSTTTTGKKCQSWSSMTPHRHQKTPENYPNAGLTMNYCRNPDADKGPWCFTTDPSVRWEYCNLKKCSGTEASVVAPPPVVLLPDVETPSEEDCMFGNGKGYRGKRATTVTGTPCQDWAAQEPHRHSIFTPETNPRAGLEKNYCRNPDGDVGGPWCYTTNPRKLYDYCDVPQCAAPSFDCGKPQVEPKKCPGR
Method: as §1

[6] = molecular target: T2, Trypsin (Bos taurus, UniProt P00760); assay: Anti-trypsin activity (inhibition of TAME hydrolysis); assay type: biochemical; details: read-out: ID50, trypsin
T2 sequence (P00760 24-246): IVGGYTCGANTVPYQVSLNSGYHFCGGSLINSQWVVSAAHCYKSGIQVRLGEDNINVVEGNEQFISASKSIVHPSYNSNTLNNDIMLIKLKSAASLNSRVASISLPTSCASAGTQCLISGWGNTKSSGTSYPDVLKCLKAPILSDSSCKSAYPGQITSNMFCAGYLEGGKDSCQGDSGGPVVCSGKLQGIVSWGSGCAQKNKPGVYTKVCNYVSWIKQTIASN
Method: as §1

[7] = molecular target: T3, Cls (Homo sapiens, UniProt P09871); assay: Anti-Cl esterase activity, Cls (ATEE hydrolysis); assay type: biochemical; details: hydrolysis of ATEE; read-out: Anti-Cl activity, Cls (50% inhibition)
T3 sequence (P09871 438-688 limits assumed): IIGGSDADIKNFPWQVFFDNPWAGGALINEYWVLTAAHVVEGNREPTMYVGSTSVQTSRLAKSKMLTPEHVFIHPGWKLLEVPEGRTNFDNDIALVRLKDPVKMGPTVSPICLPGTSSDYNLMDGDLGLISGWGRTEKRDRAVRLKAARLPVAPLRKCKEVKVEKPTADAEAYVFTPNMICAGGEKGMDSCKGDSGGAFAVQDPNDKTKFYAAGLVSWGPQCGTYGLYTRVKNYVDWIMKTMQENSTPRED
T3 sequence (P09871 16-437 limits assumed): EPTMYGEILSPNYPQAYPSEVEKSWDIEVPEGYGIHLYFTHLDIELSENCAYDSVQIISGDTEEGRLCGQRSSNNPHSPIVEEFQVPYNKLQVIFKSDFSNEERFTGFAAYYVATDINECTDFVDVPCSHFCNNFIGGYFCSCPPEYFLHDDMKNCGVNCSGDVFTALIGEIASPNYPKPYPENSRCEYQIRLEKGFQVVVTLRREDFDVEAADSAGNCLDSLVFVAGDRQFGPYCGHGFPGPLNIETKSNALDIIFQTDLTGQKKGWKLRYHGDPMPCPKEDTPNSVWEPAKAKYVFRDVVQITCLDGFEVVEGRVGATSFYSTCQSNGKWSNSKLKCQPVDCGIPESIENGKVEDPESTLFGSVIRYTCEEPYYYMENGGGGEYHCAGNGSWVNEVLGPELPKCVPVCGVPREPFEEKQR
Method: The anti-Cl esterase (Clr, Cls) activity was determined according to the method of Okamura et al. [K. Okamura, M. Muramatsu and B. Fujii, Biochem. Biophys. […] The figures in Table 2 have the following meanings:
Cls: Molar concentration of the test compound which inhibits 50% of the ability of Cls to hydrolyse ATEE (acetyltyrosin ethyl ester).

| Structure (SMILES) | IC50 [1] [µM] | IC50 [2] [µM] | IC50 [4] [µM] | IC50 [5] [µM] | IC50 [6] [µM] | Inhibition of complement mediated hemolysis (%) ([3]; compound at 1 × 10^-4) | Inhibition of complement mediated hemolysis (%) ([3]; compound at 1 × 10^-5) | Inhibition of complement mediated hemolysis (%) ([3]; compound at 1 × 10^-6) | Inhibition of complement mediated hemolysis (%) ([3]; compound at 1 × 10^-7) | IC50 [7] [µM] |
| --- | --- | --- | --- | --- | --- | --- | --- | --- | --- | --- |
| CC(=O)Oc1ccc(C(=N)N)cc1C(=O)c1ccccc1 [Compound 1, 4-amidino-2-benzoylphenyl acetate] | > 10 | > 10 | > 10 | > 10 | > 10 | 95.9 | 37.3 | 16.0 | 0 |  |
| N=C(N)c1ccc(OC(=O)CCNC(=O)OCc2ccccc2)c(C(=O)c2ccccc2)c1 [Compound 10, 4-amidino-2-benzoylphenyl 3-benzyloxycarbonylaminopropionate] | > 10 | > 10 | 2 | > 10 | > 10 | 95.9 | 80.3 | 17.0 | 2.3 |  |
| COc1cc(C(=N)N)ccc1OC(=O)c1ccc(NC(=N)N)c(C)c1 [Compound 75] | 8 |  |  |  |  | 45.2 | 3.2 | 0 | 0 | 3 |
| COc1cc(C(=N)N)ccc1OC(=O)c1ccc(NC(=N)N)cc1Cl [Compound 76] | > 10 |  |  |  |  | 34.8 | 4.8 | 0 | 0 | > 10 |

Now from value to compound, other results behind:

| IC50 [1] [µM] | IC50 [2] [µM] | IC50 [4] [µM] | IC50 [5] [µM] | IC50 [6] [µM] | Structure (SMILES) | Inhibition of complement mediated hemolysis (%) ([3]; compound at 1 × 10^-4) | Inhibition of complement mediated hemolysis (%) ([3]; compound at 1 × 10^-5) | Inhibition of complement mediated hemolysis (%) ([3]; compound at 1 × 10^-6) | Inhibition of complement mediated hemolysis (%) ([3]; compound at 1 × 10^-7) | IC50 [7] [µM] |
| --- | --- | --- | --- | --- | --- | --- | --- | --- | --- | --- |
|  | > 10 | > 10 | > 10 | > 10 | CC(=O)Oc1ccc(C(=N)N)cc1[N+](=O)[O-] [Compound 2, 4-amidino-2-nitrophenyl acetate] | 97.3 | 30.1 | 3.9 | 2.1 |  |
| > 10 | > 10 | 0.5 | 4 | > 10 | N=C(N)c1ccc(OC(=O)C2CC2)c([N+](=O)[O-])c1 [Compound 7, 4-amidino-2-nitrophenyl cyclopropanecarboxylate] | 99.0 | 78.2 | 10.2 | 1.7 |  |
| > 10 | 3 |  | 2 | 2 | N=C(N)c1ccc(OC(=O)C2CC2)c(C(=O)c2ccccc2)c1 [Compound 8] |  | 90.5 | 22.0 | 0 |  |
| 4 | > 10 |  | 0.6 | 0.3 | COC(=O)c1cc(C(=N)N)ccc1OC(=O)c1ccccc1 [Compound 25, 4-amidino-2-methoxycarbonylphenyl benzoate] | 100.0 | 93.1 | 38.6 | 11.6 | 0.2 |
